From PubChem BioAssay AID1386 (Sanford-Burnham Center for Chemical Genomics, 2008) come the findings set out here.

Structures are written as SMILES.

The test system of this test is mouse primary cortical neurons, thapsigargin death, survival counting. The test is described as follows: neuroprotection against thapsigargin-induced death, late-stage follow-up, ER stress cell death inhibitors, imaging, mouse primary cortical neurons, immunostaining, death counting (AID 1386). The conditions noted are these: at 25 µM.

Regarding `COc1ccc(C2CC(=O)C3=C(C2)Nc2ccccc2NC3c2cccc(Oc3ccccc3)c2)cc1OC` (configuration not stated), the survival is 87% (stronger effect = higher value) and 91% (measured here: survival without thapsigargin).
